Data on twelve compounds can be found in patent US8399482B2, “6-substituted isoquinolines and isoquinolinones” (Sanofi, priority 2008, dated 2013).

Bounds are passed on as bounds.

Common to all, as to format: biochemical
Experiment [1] addresses T1, recombinant human PKA (Homo sapiens, UniProt P17612).
T1 construct: recombinant human PKA (residues 1-351, N-terminal His-tag); His-tag (N); purchased Invitrogen, Karlsruhe, Germany
The experiment is described as follows: Determination of Protein Kinase A inhibition (selectivity). As to conditions: from IC50 values. On the procedure:
(§1) 2) Determination of Protein Kinase a and Protein Kinase G Inhibition
(§2) To measure PKA and PKG1-beta inhibition, IC50 values were determined according to the following protocol:
(§3) Active recombinant human PKG1-beta (full-length, with N-terminal His-tag) was purchased from Millipore GmbH, Schwalbach, Germany. Active recombinant human PKA (residues 1-351, N-terminal His-tag) was obtained from Invitrogen, Karlsruhe, Germany. The peptide substrate, Fluorescein-[…]-COOH, was obtained from JPT Peptide Technologies, Berlin, Germany. Adenosine-5′-triphosphate (ATP), bovine serum albumine (BSA), dimethylsulphoxide (DMSO), 4-(2-Hydroxyethyl)piperazine-1-ethanesulfonic acid (Hepes), Brij-35, dithiothreitol (DTT) and Pluronic F-68 were purchased from Sigma-Aldrich, Munich, Germany. Tris(hydroxymethyl)-aminomethane (Tris), magnesium chloride, NaOH, 1M HCl and EDTA were obtained from Merck Biosciences, Darmstadt, Germany. “Complete” protease inhibitor was from Roche Diagnostics, Mannheim, Germany. Test compounds were diluted to the appropriate concentrations in buffer 1 (25 mM Tris-HCl, pH 7.4, 5 mM MgCl2, 2 mM DTT, 0.02% (w/v) BSA, 0.01% Pluronic F-68 and 3% DMSO). PKG1-beta and PKA were diluted to concentrations of 150 ng/ml and 30 ng/ml, respectively, in buffer 2. The peptide substrate and ATP were diluted to concentrations of 3 μM and 120 μM, respectively, in the buffer 2. Two μl of the compound solution were mixed with 2 μl of the diluted enzyme in a 384-well small volume microtiter plate (Greiner, Bio-One, Frickenhausen, Germany), and the kinase reaction was initiated by addition of 2 μl of the solution containing peptide substrate and ATP. After 60 min incubation at 32° C., the reaction was stopped by addition of 20 μl of a solution containing 100 mM Hepes-NaOH, pH 7.4, 0.015% (v/v) Brij-35, 45 mM EDTA and 0.227% chip coating reagent 1 (Caliper Lifescience Inc, Hopkinton, Mass.). Phosphorylation of the substrate peptide was then detected on a Caliper 3000 instrument essentially as described by Pommereau et al (J. Biomol. Screening 9(5), 409-416, 2004). Separation conditions were as follows: Pressure −1.3 psi, upstream voltage −1562 V, downstream voltage −500 V, sample sip time 200 ms, Positive controls (buffer 1 instead of compound) and negative controls (buffer 1 instead of compound and buffer 2 instead of kinase solution) were run in parallel on each plate. The following products/compounds were tested in said assay by using the respective form (salt or free base) obtained as in the examples described above and the following activities were measured.

The target in experiment [2] is T2, human recombinant ROCK II (Homo sapiens, UniProt O75116).
T2 construct: recombinant human ROCK-II residues 11-552; His6 (N); purchased Millipore GmbH, Schwalbach, Germany
Description: Determination of Rho kinase inhibition (ROCK II, Caliper peptide phosphorylation assay). Conditions: respective form (salt or free base) as obtained in the examples, 60 min at 32° C. The protocol:
To measure Rho-kinase inhibition, IC50 values were determined according to the following protocol:
Active human recombinant ROCK II (N-terminal His6-tagged recombinant human ROCK-II residues 11-552) was purchased from Millipore GmbH, Schwalbach, Germany. The peptide substrate, Fluorescein-[…]-COOH, was obtained from JPT Peptide Technologies, Berlin, Germany. Adenosine-5′-triphosphate (ATP), bovine serum albumine (BSA), dimethylsulphoxide (DMSO), 4-(2-hydroxyethyl)piperazine-1-ethanesulfonic acid (Hepes), Brij-35, dithiothreitol (DTT) and Pluronic F-68 were purchased from Sigma-Aldrich, Munich, Germany. Tris(hydroxymethyl)-aminomethane (Tris), magnesium chloride, NaOH, 1M HCl and EDTA were obtained from Merck Biosciences, Darmstadt, Germany. “Complete” protease inhibitor was from Roche Diagnostics, Mannheim, Germany. Test compounds were diluted to the appropriate concentrations in buffer 1 (25 mM Tris-HCl, pH 7.4, 5 mM MgCl2, 2 mM DTT, 0.02% (w/v) BSA, 0.01% Pluronic F-68 and 3% DMSO). The ROCK II enzyme was diluted to a concentration of 100 ng/mL in buffer 2 (25 mM Tris-HCl, pH 7.4, 5 mM MgCl2, 2 mM DTT and 0.02% (w/v) BSA). The peptide substrate and ATP were diluted to concentrations of 3 μM and 120 μM, respectively, in the buffer 2. Two μl of the compound solution were mixed with 2 μl of the diluted enzyme in a 384-well small volume microtiter plate (Greiner, Bio-One, Frickenhausen, Germany), and the kinase reaction was initiated by addition of 2 μl of the solution containing peptide substrate and ATP. After 60 min incubation at 32° C., the reaction was stopped by addition of 20 μl of a solution containing 100 mM Hepes-NaOH, pH 7.4, 0.015% (v/v) Brij-35, 45 mM EDTA and 0.227% chip coating reagent 1 (Caliper Lifescience Inc, Hopkinton, Mass.). Phosphorylation of the substrate peptide was then detected on a Caliper 3000 instrument essentially as described by Pommereau et al (J. Biomol. Screening 2004, 9(5), 409-416). Separation conditions were as follows: Pressure −1.3 psi, upstream voltage −1562 V, downstream voltage −500 V, sample sip time 200 ms. Positive controls (buffer 1 instead of compound) and negative controls (buffer 1 instead of compound and buffer 2 instead of ROCK II) were run in parallel on each plate.
The following products/compounds were tested in said assay by using the respective form (salt or free base) obtained as in the examples described above and the following activities were measured

Experiment [3] deals with T3, recombinant human PKG1-beta (Homo sapiens, UniProt Q13976).
T3 construct: PKG1-beta (full-length, with N-terminal His-tag); His-tag (N); purchased Millipore GmbH, Schwalbach, Germany
T3 sequence (Q13976 1-686 isoform Q13976-2): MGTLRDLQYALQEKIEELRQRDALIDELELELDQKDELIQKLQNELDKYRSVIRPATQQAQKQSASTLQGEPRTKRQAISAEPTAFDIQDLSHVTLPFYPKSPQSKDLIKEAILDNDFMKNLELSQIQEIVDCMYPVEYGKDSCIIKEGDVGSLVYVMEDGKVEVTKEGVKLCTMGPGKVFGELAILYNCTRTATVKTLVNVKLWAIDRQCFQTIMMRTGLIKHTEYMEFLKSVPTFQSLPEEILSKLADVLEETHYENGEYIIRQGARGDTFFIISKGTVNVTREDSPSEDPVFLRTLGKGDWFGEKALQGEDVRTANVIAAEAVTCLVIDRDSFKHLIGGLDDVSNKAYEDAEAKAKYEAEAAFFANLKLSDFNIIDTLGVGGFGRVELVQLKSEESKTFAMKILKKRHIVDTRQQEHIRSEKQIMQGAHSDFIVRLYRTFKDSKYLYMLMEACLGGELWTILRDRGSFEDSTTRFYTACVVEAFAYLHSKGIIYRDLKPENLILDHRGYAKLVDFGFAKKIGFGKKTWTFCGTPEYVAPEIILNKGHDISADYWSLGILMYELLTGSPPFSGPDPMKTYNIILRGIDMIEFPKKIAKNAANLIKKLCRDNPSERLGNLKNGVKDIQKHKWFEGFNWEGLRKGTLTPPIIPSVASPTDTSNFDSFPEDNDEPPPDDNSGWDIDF
Description: Determination of Protein Kinase G inhibition (selectivity). As to conditions: from IC50 values. On the procedure:
as §1, §2, §3

T2 sequence (O75116 11-552): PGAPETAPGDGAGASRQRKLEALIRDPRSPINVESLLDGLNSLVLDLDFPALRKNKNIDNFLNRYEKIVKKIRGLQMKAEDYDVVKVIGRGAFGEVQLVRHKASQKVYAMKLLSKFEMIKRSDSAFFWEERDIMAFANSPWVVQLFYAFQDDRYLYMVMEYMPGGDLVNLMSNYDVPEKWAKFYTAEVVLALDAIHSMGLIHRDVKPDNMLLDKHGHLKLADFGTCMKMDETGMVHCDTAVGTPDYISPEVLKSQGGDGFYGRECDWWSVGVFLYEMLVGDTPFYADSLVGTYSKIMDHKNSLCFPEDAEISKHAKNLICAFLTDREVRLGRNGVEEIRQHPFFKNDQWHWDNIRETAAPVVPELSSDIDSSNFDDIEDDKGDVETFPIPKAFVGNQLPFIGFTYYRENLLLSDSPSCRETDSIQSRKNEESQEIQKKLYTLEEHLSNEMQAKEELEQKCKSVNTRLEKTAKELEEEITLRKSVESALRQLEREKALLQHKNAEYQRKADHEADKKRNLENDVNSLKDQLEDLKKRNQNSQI

With `CCC(N)C1(CC2CC2)CCC(Oc2cc3cc[nH]c(=O)c3cc2Cl)CC1` (single isomer, unassigned) [Example 13, 6-[4-(1-Amino-propyl)-4-cyclopropyl-methyl-cyclohexyl-oxy]-7-chloro-2H-isoquinolin-1-one], the “Selectivity against PKA” value in experiment [1] was above 10 fold. In experiment [2], the IC50 (usually the midpoint of a concentration-inhibition curve) was 10 to 100 nM. In experiment [3], the “Selectivity against PKG” value is given as above 10 fold.
With `CCCC(N)C1(CC2CC2)CCC(Oc2cc3cc[nH]c(=O)c3cc2Cl)CC1` (single isomer, unassigned) [Example 14, 6-[4-(1-Amino-butyl)-4-cyclopropylmethyl-cyclohexyloxy]-7-chloro-2H-isoquinolin-1-one], the “Selectivity against PKA” value in experiment [1] was above 1000 fold. For the same compound, the IC50 in experiment [2] is at most 10 nM. The “Selectivity against PKG” value in experiment [3] was above 100 fold.
On the same counts, the results for `CCCC(N)C1(CC2CC2)CCC(Oc2cc3cc[nH]c(=O)c3cc2Cl)CC1` (single isomer, unassigned) [Example 15, 6-[4-(1-Amino-butyl)-4-cyclopropylmethyl-cyclohexyloxy]-7-chloro-2H-isoquinolin-1-one] are above 10 fold, 10 to 100 nM and above 10 fold.
On the same counts, the results for `NC(C1CC1)C1(CC2CC2)CCC(Oc2cc3cc[nH]c(=O)c3cc2Cl)CC1` (single isomer, unassigned) [Example 16, 6-[4-(Amino-cyclopropyl-methyl)-4-cyclopropylmethyl-cyclohexyloxy]-7-chloro-2H-isoquinolin-1-one] are above 300 fold, at most 10 nM and above 300 fold.
On the same counts, the results for `NC(C1CC1)C1(CC2CC2)CCC(Oc2cc3cc[nH]c(=O)c3cc2Cl)CC1` (single isomer, unassigned) [Example 17, 6-[4-(Amino-cyclopropyl-methyl)-4-cyclopropylmethyl-cyclohexyloxy]-7-chloro-2H-isoquinolin-1-one] are above 10 fold, 10 to 100 nM and above 10 fold.
`CC(C)C(N)C1(CC2CC2)CCC(Oc2cc3cc[nH]c(=O)c3cc2Cl)CC1` (single isomer, unassigned) [Example 18, 6-[4-(1-Amino-2-methyl-propyl)-4-cyclopropylmethyl-cyclohexyloxy]-7-chloro-2H-isoquinolin-1-one]: in experiment [1], the “Selectivity against PKA” value is above 300 fold. In experiment [2], the IC50 was at most 10 nM. For the same compound, the “Selectivity against PKG” value in experiment [3] is above 300 fold.
With `CCC(N)C1(COC(C)C)CCC(Oc2cc3cc[nH]c(=O)c3cc2Cl)CC1` (single isomer, unassigned) [Example 19, 6-[4-(1-Amino-propyl)-4-isopropoxymethyl-cyclohexyloxy]-7-chloro-2H-isoquinolin-1-one], the “Selectivity against PKA” value in experiment [1] is on record as above 1000 fold. Also, the IC50 in experiment [2] was 10 to 100 nM. In addition, the “Selectivity against PKG” value in experiment [3] was above 300 fold.
On the same counts, the results for `CC(N)C1(C2CCC2)CCC(Oc2cc3cc[nH]c(=O)c3cc2Cl)CC1` (single isomer, unassigned) [Example 21, 6-[4-(1-Amino-ethyl)-4-cyclobutyl-cyclohexyloxy]-7-chloro-2H-isoquinolin-1-one] are above 300 fold, 10 to 100 nM and above 100 fold.
On the same counts, the results for `CCC(N)C1(C2CCC2)CCC(Oc2cc3cc[nH]c(=O)c3cc2Cl)CC1` (single isomer, unassigned) [Example 22, 6-[4-(1-Amino-propyl)-4-cyclobutyl-cyclohexyloxy]-7-chloro-2H-isoquinolin-1-one] are above 300 fold, 10 to 100 nM and above 100 fold.
On the same counts, the results for `CCC(N)C1(C2CCC2)CCC(Oc2cc3cc[nH]c(=O)c3cc2Cl)CC1` (single isomer, unassigned) [Example 23, 6-[4-(1-Amino-propyl)-4-cyclobutyl-cyclohexyloxy]-7-chloro-2H-isoquinolin-1-one] are above 10 fold, 100 to 1000 nM and above 10 fold.
Turning to `NC(c1ccccc1)C1(C2CCCC2)CCC(Oc2cc3cc[nH]c(=O)c3cc2Cl)CC1` (single isomer, unassigned) [Example 25, 6-[4-(Amino-phenyl-methyl)-4-cyclopentyl-cyclohexyloxy]-7-chloro-2H-isoquinolin-1-one], the “Selectivity against PKA” value in experiment [1] is given as above 300 fold. Further, in experiment [2], the IC50 is 10 to 100 nM. Moreover, in experiment [3], the “Selectivity against PKG” value was above 100 fold.
On the same counts, the results for `CCC(N)C1(C)CCC(Oc2cc3cc[nH]c(=O)c3cc2Cl)CC1` (single isomer, unassigned) [Example 27, 6-[4-(1-Amino-propyl)-4-methyl-cyclohexyloxy]-7-chloro-2H-isoquinolin-1-one] are above 1000 fold, 10 to 100 nM and above 1000 fold.
